The source of these data is patent US9751854B2 (Millennium Pharmaceuticals, Inc., priority 2014, dated 2017).

For orientation: IC50 means the concentration that inhibits the measured activity by half.

Sequence of human VPS34 (Q8NEB9 whole entry): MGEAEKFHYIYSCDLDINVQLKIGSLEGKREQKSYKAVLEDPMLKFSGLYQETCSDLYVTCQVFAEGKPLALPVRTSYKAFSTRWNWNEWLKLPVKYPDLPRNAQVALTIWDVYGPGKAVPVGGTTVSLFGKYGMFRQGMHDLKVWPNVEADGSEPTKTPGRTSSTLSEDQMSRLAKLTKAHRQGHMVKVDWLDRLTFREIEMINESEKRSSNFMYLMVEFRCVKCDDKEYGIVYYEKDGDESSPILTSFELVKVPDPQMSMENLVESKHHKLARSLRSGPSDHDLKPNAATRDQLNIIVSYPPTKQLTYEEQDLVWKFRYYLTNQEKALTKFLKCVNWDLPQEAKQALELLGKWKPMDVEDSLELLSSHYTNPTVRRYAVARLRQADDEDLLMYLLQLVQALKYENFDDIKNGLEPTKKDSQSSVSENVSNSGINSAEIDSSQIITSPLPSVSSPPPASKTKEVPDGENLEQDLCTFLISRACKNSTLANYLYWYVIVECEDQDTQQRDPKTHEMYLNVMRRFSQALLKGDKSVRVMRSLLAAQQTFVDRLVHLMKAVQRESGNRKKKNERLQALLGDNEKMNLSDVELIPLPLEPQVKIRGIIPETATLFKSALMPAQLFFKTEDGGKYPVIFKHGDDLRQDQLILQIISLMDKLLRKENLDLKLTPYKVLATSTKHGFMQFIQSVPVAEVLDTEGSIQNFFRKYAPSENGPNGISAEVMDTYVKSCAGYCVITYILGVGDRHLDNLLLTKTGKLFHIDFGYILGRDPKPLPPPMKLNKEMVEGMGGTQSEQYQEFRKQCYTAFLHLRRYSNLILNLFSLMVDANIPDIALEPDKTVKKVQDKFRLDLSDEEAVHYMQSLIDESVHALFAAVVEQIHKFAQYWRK

One assay has as its target human VPS34 (Homo sapiens (Human), UniProt Q8NEB9). The assay can be described thus: Human VPS34 enzyme assay (Adapta TR-FRET ADP detection). It counts as biochemical. Further details: Percent Inhibition: dose or concentration left out as unconfirmed.
Conditions: not given
(In general: In TR-FRET formats the signal depends on donor and acceptor labels being close together.)
For `Cc1ncc(-c2ccnc(NC(=O)C3CC3(F)F)c2)cc1NS(=O)(=O)N(C)C` (single isomer, unassigned) [Compound I-498], the “Percent Inhibition” value amounted to 83%.

The assay is the same for the next values; noted with them: IC50 range class.
Regarding `COc1ncc(-c2ccnc(NC(C)=O)c2)cc1C(=O)N(C)c1ccc(F)cc1F` [Compound I-423, 2′-aceramido-N-(2,4-difluorophenyl)-6-methoxy-N-methyl-3,4′-bipyridine-5-carboxamide], the IC50 was 10 to 50 nM.
On the same count and under the same terms, to `CC(=O)Nc1cc(-c2cnc(N)c(C(=O)N3CCCC3)c2)ccn1` [Compound I-15, N-[6-amino-5-(pyrrolidin-1-ylcarbonyl)-3,4′-bipyridin-2′-yl]acetamide] belongs 10 to 50 nM; to `Cc1ncc(-c2ccnc(Nc3ccncn3)c2)cc1NS(=O)(=O)c1ccc(F)cc1F` [Compound I-239, 2,4-difluoro-N-(6-methyl-2′-(pyrimidin-4-ylamino)-3,4′-bipyridin-5-yl]benzenesulfonamide], under 10 nM; to `CC(=O)Nc1cc(-c2cnc(C)c(OCC3CC3)c2)ccn1` [Compound I-492, N-[5-(cyclopropylmethoxy)-6-methyl-3,4′-bipyridin-2′-yl]acetamide], over 100 nM.
`Cc1ncc(-c2ccnc(NC(=O)C3CC3(F)F)c2)cc1NS(=O)(=O)N(C)C` (single isomer, unassigned) [Compound I-498]: the 50% inhibitory concentration (IC50) was 10 to 50 nM.
On the same count and under the same terms, to `Cc1nccc(Nc2cc(-c3cnc(Cl)c(S(=O)(=O)NC45CC(C4)C5)c3)ccn2)n1` [Compound I-242, N-(bicyclo[1.1.1]pent-1-yl)-6-chloro-2′-[(2-methylpyrimidin-4-yl)amino]-3,4′-bipyridine-5-sulfonamide] belongs 10 to 50 nM; to `CNS(=O)(=O)Nc1cc(-c2ccnc(NC(C)=O)c2)cnc1C` [Compound I-455, N-{6-methyl-5-[(methylsulfamoyl)amino]-3,4′-bipyridin-2′-yl}acetamide], 10 to 50 nM; to `Cc1ncc(-c2ccnc(Nc3nc4ccccc4o3)c2)cc1NS(=O)(=O)c1ccc(F)cc1F` [Compound I-233, N-[2′-(1,3-benzoxazol-2-ylamino)-6-methyl-3,4′-bipyridin-5-yl}2,4-difluorobenzenesulfonamide], 10 to 50 nM.
The same measure, in the same setting: to `CC(=O)Nc1cc(-c2cnc(N)c(C(=O)Nc3ccccc3Cl)c2)ccn1` [Compound I-136, 2′-acetamido-6-amino-N-(2-chlorophenyl)-3,4′-bipyridine-5-carboxamide] belongs under 10 nM; to `CC(=O)Nc1cc(-c2cncc(Nc3ncco3)c2)ccn1` [Compound I-472, N-[5-(1,3-oxazol-2-ylamino)-3,4′-bipyridin-2′-yl]acetamide], over 100 nM; to `CC(=O)Nc1cc(-c2cnc(C)c(NS(=O)(=O)c3ccc(C(C)(C)C)cc3)c2)ccn1` [Compound I-131, N-(5-{[(4-tert-butylphenyl)sulfonyl]amino}-6-methyl-3,4′-bipyridin-2′-yl)acetamide], under 10 nM.
On the same count and under the same terms, as for `CC(=O)Nc1cc(-c2cncc(NS(=O)(=O)c3ccc(F)cc3F)c2)ccn1` [Compound I-12, N-(5-{[(2,4-difluorophenyl)sulfonyl]amino}-3,4′-bipyridin-2′-yl)acetamide], the figure is under 10 nM; as for `CC(=O)Nc1cc(-c2cnc(N)c(S(=O)(=O)NCC3CC3)c2)ccn1` [Compound I-108, N-(6-amino-5-[(cyclopropylmethyl)sulfamoyl]-3,4′-bipyridin-2′-yl]acetamide], 10 to 50 nM.
For `CC(=O)Nc1cc(-c2cnc(Cl)c(NS(=O)(=O)c3ccc(C#N)cc3)c2C)ccn1` [Compound I-429, N-(6-chloro-5-{[(4-cyanophenyl)sulfonyl]amino}-4-methyl-3,4′-bipyridin-2′-yl)acetamide], the concentration for half-maximal inhibition (IC50) was 10 to 50 nM.
Still for that read-out and setting: as for `CC(=O)Nc1cc(-c2cnc(N)c(S(=O)(=O)Nc3ccc(Cl)cc3)c2)ccn1` [Compound I-207, N-{6-amino-5-[(4-chlorophenyl)sulfamoyl]-3,4′-bipyridin-2′-yl}acetamide], the figure is under 10 nM.
Same read-out and setting: to `CNc1ncc(-c2ccnc(NC(C)=O)c2)cc1S(=O)(=O)Nc1ccc(F)cc1F` [Compound I-63, N-{5-[(2,4-difluorophenyl)sulfamoyl]-6-(methylamino)-3,4′-bipyridin-2′-yl}acetamide] belongs under 10 nM; to `Cc1ncc(-c2ccnc(NC(=O)N3CCCC3)c2)cc1NS(=O)(=O)c1ccc(F)cc1F` [Compound I-313, N-(5-{[(2,4-difluorophenyl)sulfonyl]amino}-6-methyl-3,4′-bipyridin-2′-yl)pyrrolidine-1-carboxamide], 10 to 50 nM.
The same measure, in the same setting: to `Cc1nccc(Nc2cc(-c3cnc(C)c(C(N)=O)c3)ccn2)n1` [Compound I-280, 6-methyl-2′-[(2-methylpyrimidin-4-yl)amino]-3,4′-bipyridine-5-carboxamide] belongs over 100 nM.
Compound `CC(=O)Nc1cc(-c2cnc3cn[nH]c3c2)ccn1` [Compound I-116, N-[4-(1H-pyrazolo[4,3-b]pyridin-6-yl)pyridin-2-yl]acetamide] registered an IC50 of over 100 nM.
Still for that read-out and setting: as for `CC(=O)Nc1cc(-c2cnc3c(c2)S(=O)(=O)N[C@H](c2ccccc2)CO3)ccn1` [Compound I-420, (R)-N-(4-(1,1-dioxido-3-phenyl-3,4-dihydro-2H-pyrido[2,3-b][1,4,5]oxathiazepin-8-yl)pyridin-2-yl)acetamide], the figure is over 100 nM; as for `CC(=O)Nc1cc(-c2cnc(C)c(N(C)C(=O)c3ccc(F)cc3F)c2)ccn1` [Compound I-398, N-(2′-acetamido-6-methyl-3,4′-bipyridin-5-yl)-2,4-difluoro-N-methylbenzamide], over 100 nM.
In turn, `CC(=O)Nc1cc(-c2cnc(N)c(S(=O)(=O)Cc3ccccc3)c2)ccn1` [Compound I-6, N-[6-amino-5-(benzylsulfonyl)-3,4′-bipyridin-2′-yl]acetamide] returned an IC50 of 10 to 50 nM.
On the same count and under the same terms, to `CC(=O)Nc1cc(-c2cnc(Cl)c(NS(=O)(=O)c3ccccc3)c2)c(C)cn1` [Compound I-56, N-{6-chloro-5′-methyl-5-[(phenylsulfonyl)amino]-3,4′-bipyridin-2′-yl]acetamide] belongs 10 to 50 nM.
For the compound `CC(=O)Nc1cc(-c2cnc(Cl)c(S(=O)(=O)NC3CCC3)c2)ccn1` [Compound I-438, N-[6-chloro-5-(cyclobutylsulfamoyl)-3,4′-bipyridin-2′-yl]acetamide], the IC50 was in the range of 10 to 50 nM.
On the same count and under the same terms, to `CC(=O)Nc1cc(-c2cnc(NCC3CC3)c(N)c2)ccn1` [Compound I-53, N-{5-amino-6-{(cyclopropylmethyl)amino]-3,4′-bipyridin-2′-yl}acetamide] belongs over 100 nM.
Same read-out and setting: to `CC(=O)Nc1cc(-c2cnc(C)c(NS(=O)(=O)N3CCOCC3)c2)ccn1` [Compound I-447, N-{6-methyl-5-[(morpholin-4-ylsulfonyl)amino]-3,4′-bipyridin-2′-yl}acetamide] belongs under 10 nM; to `CC(=O)Nc1cc(-c2cnc(N)c(S(C)(=O)=O)c2)ccn1` [Compound I-95, N-[6-amino-5-(methylsulfonyl)-3,4′-bipyridin-2′-yl]acetamide], 10 to 50 nM; to `CC(=O)Nc1cc(-c2cnc(C)c(NS(=O)(=O)c3cc(Cl)ccc3Cl)c2)ccn1` [Compound I-111, N-(5-{[(2,5-dichlorophenyl)sulfonyl]amino}-6-methyl-3,4′-bipyridin-2′-yl)acetamide], under 10 nM.
Still for that read-out and setting: as for `CC(=O)Nc1cc(-c2cnc(C)c(N(C)S(=O)(=O)C3CC3)c2)ccn1` [Compound I-212, N-{5-[(cyclopropylsulfonyl)(methyl)amino]-6-methyl-3,4′-bipyridin-2′-yl}acetamide], the figure is 50 to 100 nM.
